Measured values taken from patent US20130137772A1, “HYDROXYPOLYAMINE SALTS” (priority 2011, published 2013).
Where “and” joins values, the source holds several entries; their conditions need not be identical. Equal entries are not always repeated. One block for each compound: values may come before it.

Test: Tissue distribution and metabolism: polyamine content of kidney, liver and pancreas via HPLC
Type: in vivo, Female CD-1 mice
Procedure: The tissue distribution and metabolism of DEHSPM, (HO)2DEHSPM HCl Salt and (HO)2DEHSPM Mesylate Salt in various organs were evaluated utilizing the following protocol:
Tissue Distribution and Metabolism of DEHSPM, (HO)2DEHSPM HCl Salt and (HO)2DEHSPM Mesylate Salt
• 1) DEHSPM, (HO)2DEHSPM HCl salt, and (HO)2DEHSPM mesylate salt were dissolved in sterile normal saline; the pH was not adjusted. • 2) Female CD-1 mice were given the drugs at equimolar dosages intraperitoneally once daily for 5 days. • 3) The animals, n=3-4 per group, were euthanized 4, 8, or 24 h post-last dose. • 4) The kidney, liver, and pancreas were removed and assessed for their polyamine content via HPLC analysis. • 5) The polyamine concentration data (mean±STD) are expressed as nmol/g wet weight of tissue. SPM, spermine; SPD, spermidine; PUT, putrescine; N.D., not determined. • 6) A one-tailed t test assuming unequal variance was performed on the tissue polyamine concentration data. A value of p<0.05 was considered significant.

[1] = kidney, 4 h post-last dose, HCl salt 20 mg/kg/d IP x 5 d
[2] = kidney, 8 h post-last dose, HCl salt 20 mg/kg/d IP x 5 d
[3] = kidney, 24 h post-last dose, HCl salt 20 mg/kg/d IP x 5 d
[4] = liver, 4 h post-last dose, HCl salt 20 mg/kg/d IP x 5 d
[5] = liver, 8 h post-last dose, HCl salt 20 mg/kg/d IP x 5 d
[6] = liver, 24 h post-last dose, HCl salt 20 mg/kg/d IP x 5 d
[7] = liver, 24 h post-last dose, HCl salt 20 mg/kg/d IP x 5 d, listed as (HO)2DEHSPM•4HCl Salt
[8] = pancreas, 4 h post-last dose, HCl salt 20 mg/kg/d IP x 5 d
[9] = pancreas, 8 h post-last dose, HCl salt 20 mg/kg/d IP x 5 d
[10] = pancreas, 24 h post-last dose, HCl salt 20 mg/kg/d IP x 5 d
[11] = kidney, 4 h post-last dose, mesylate salt 30.3 mg/kg/d IP x 5 d
[12] = kidney, 8 h post-last dose, mesylate salt 30.3 mg/kg/d IP x 5 d
[13] = kidney, 24 h post-last dose, mesylate salt 30.3 mg/kg/d IP x 5 d
[14] = liver, 4 h post-last dose, mesylate salt 30.3 mg/kg/d IP x 5 d
[15] = liver, 8 h post-last dose, mesylate salt 30.3 mg/kg/d IP x 5 d
[16] = liver, 24 h post-last dose, mesylate salt 30.3 mg/kg/d IP x 5 d
[17] = pancreas, 4 h post-last dose, mesylate salt 30.3 mg/kg/d IP x 5 d
[18] = pancreas, 8 h post-last dose, mesylate salt 30.3 mg/kg/d IP x 5 d
[19] = pancreas, 24 h post-last dose, mesylate salt 30.3 mg/kg/d IP x 5 d

(HO)2DEHSPM 4HCl Salt concentration [1]: 852 ± 202 nmol/g wet weight of tissue | (HO)2HSPM concentration [1]: 50 ± 19 nmol/g wet weight of tissue | (HO)2DEHSPM 4HCl Salt concentration [2]: 871 ± 85 nmol/g wet weight of tissue | (HO)2HSPM concentration [2]: 70 ± 6 nmol/g wet weight of tissue | (HO)2DEHSPM 4HCl Salt concentration [3]: 618 ± 82 nmol/g wet weight of tissue | (HO)2HSPM concentration [3]: 76 ± 7 nmol/g wet weight of tissue | (HO)2DEHSPM 4HCl Salt concentration [4]: 248 ± 17 nmol/g wet weight of tissue | (HO)2HSPM concentration [4]: 70 ± 5 nmol/g wet weight of tissue | (HO)2DEHSPM 4HCl Salt concentration [5]: 228 ± 55 nmol/g wet weight of tissue | (HO)2HSPM concentration [5]: 103 ± 14 nmol/g wet weight of tissue | (HO)2DEHSPM 4HCl Salt concentration [6]: 136 ±50 nmol/g wet weight of tissue | (HO)2HSPM concentration [6]: 102 ± 13 nmol/g wet weight of tissue | (HO)2DEHSPM 4HCl Salt concentration [7]: 136 ± 50 nmol/g wet weight of tissue | (HO)2DEHSPM 4HCl Salt concentration [8]: 217 ± 27 nmol/g wet weight of tissue | (HO)2HSPM concentration [8]: 56 ± 11 nmol/g wet weight of tissue | (HO)2DEHSPM 4HCl Salt concentration [9]: 223 ± 54 nmol/g wet weight of tissue | (HO)2HSPM concentration [9]: 60 ± 9 nmol/g wet weight of tissue | (HO)2DEHSPM 4HCl Salt concentration [10]: 209 ± 37 nmol/g wet weight of tissue | (HO)2HSPM concentration [10]: 58 ± 14 nmol/g wet weight of tissue
Compound: CCNCCC(O)CNCCCCNCC(O)CCNCC.Cl.Cl.Cl.Cl (stereo not shown) [(HO)2DEHSPM HCl Salt]
PUT concentration [1]: 31 ± 27 nmol/g wet weight of tissue | SPD concentration [1]: 327 ± 86 nmol/g wet weight of tissue | SPM concentration [1]: 544 nmol/g wet weight of tissue | SPM concentration (kidney, 4 h post-last dose, HCl salt 20 mg/kg/d IP x 5 d, listed as (HO)2DEHSPM•4HCl Salt): 544 ± 14 nmol/g wet weight of tissue | PUT concentration [2]: 29 ± 5 nmol/g wet weight of tissue | SPD concentration [2]: 275 ± 16 nmol/g wet weight of tissue | SPM concentration [2]: 641 nmol/g wet weight of tissue | SPM concentration (kidney, 8 h post-last dose, HCl salt 20 mg/kg/d IP x 5 d, listed as (HO)2DEHSPM•4HCl Salt): 641 ± 33 nmol/g wet weight of tissue | PUT concentration [3]: 28 ± 6 nmol/g wet weight of tissue | SPD concentration [3]: 304 ± 30 nmol/g wet weight of tissue | SPM concentration [3]: 588 nmol/g wet weight of tissue | SPM concentration (kidney, 24 h post-last dose, HCl salt 20 mg/kg/d IP x 5 d, listed as (HO)2DEHSPM•4HCl Salt): 588 ± 5 nmol/g wet weight of tissue | PUT concentration [4]: 0 ± 0 nmol/g wet weight of tissue | SPD concentration [4]: 1050 ± 9 nmol/g wet weight of tissue | SPM concentration [4]: 875 nmol/g wet weight of tissue | SPM concentration (liver, 4 h post-last dose, HCl salt 20 mg/kg/d IP x 5 d, listed as (HO)2DEHSPM•4HCl Salt): 875 ± 128 nmol/g wet weight of tissue | PUT concentration [5]: 20 ± 17 nmol/g wet weight of tissue | SPD concentration [5]: 1175 ± 190 nmol/g wet weight of tissue | SPM concentration [5]: 1071 nmol/g wet weight of tissue | SPM concentration (liver, 8 h post-last dose, HCl salt 20 mg/kg/d IP x 5 d, listed as (HO)2DEHSPM•4HCl Salt): 1071 ± 7 nmol/g wet weight of tissue | PUT concentration [6]: 7 ± 14 nmol/g wet weight of tissue | SPD concentration [6]: 884 ± 156 nmol/g wet weight of tissue | SPM concentration [6]: 837 nmol/g wet weight of tissue | SPM concentration [7]: 837 ± 13 nmol/g wet weight of tissue | PUT concentration [8]: 32 ± 3 nmol/g wet weight of tissue | SPD concentration [8]: 5868 ± 505 nmol/g wet weight of tissue | SPM concentration [8]: 1153 nmol/g wet weight of tissue and 1153 ± 159 nmol/g wet weight of tissue | PUT concentration [9]: 50 ± 7 nmol/g wet weight of tissue | SPD concentration [9]: 6343 ± 596 nmol/g wet weight of tissue | SPM concentration [9]: 1476 nmol/g wet weight of tissue and 1476 ± 101 nmol/g wet weight of tissue | PUT concentration [10]: 36 ± 5 nmol/g wet weight of tissue | SPD concentration [10]: 6386 ± 309 nmol/g wet weight of tissue | SPM concentration [10]: 1177 nmol/g wet weight of tissue and 1177 ± 161 nmol/g wet weight of tissue

(HO)2DEHSPM Mesylate concentration [11]: 541 ± 65 nmol/g wet weight of tissue | (HO)2HSPM concentration [11]: 77 ± 6 nmol/g wet weight of tissue | (HO)2DEHSPM Mesylate concentration [12]: 533 ± 84 nmol/g wet weight of tissue | (HO)2HSPM concentration [12]: 89 ± 14 nmol/g wet weight of tissue | (HO)2DEHSPM Mesylate concentration [13]: 360 ± 43 nmol/g wet weight of tissue | (HO)2HSPM concentration [13]: 97 ± 5 nmol/g wet weight of tissue | (HO)2DEHSPM Mesylate concentration [14]: 168 ± 32 nmol/g wet weight of tissue | (HO)2HSPM concentration [14]: 79 ± 7 nmol/g wet weight of tissue | (HO)2DEHSPM Mesylate concentration [15]: 135 ± 3 nmol/g wet weight of tissue | (HO)2HSPM concentration [15]: 116 ± 15 nmol/g wet weight of tissue | (HO)2DEHSPM Mesylate concentration [16]: 73 ± 11 nmol/g wet weight of tissue | (HO)2HSPM concentration [16]: 88 ± 5 nmol/g wet weight of tissue | (HO)2DEHSPM Mesylate concentration [17]: 131 ± 27 nmol/g wet weight of tissue | (HO)2HSPM concentration [17]: 50 ± 6 nmol/g wet weight of tissue | (HO)2DEHSPM Mesylate concentration [18]: 153 ± 11 nmol/g wet weight of tissue | (HO)2HSPM concentration [18]: 70 ± 2 nmol/g wet weight of tissue | (HO)2DEHSPM Mesylate concentration [19]: 134 ± 14 nmol/g wet weight of tissue | (HO)2HSPM concentration [19]: 75 ± 4 nmol/g wet weight of tissue
Compound: CCNCCC(O)CNCCCCNCC(O)CCNCC.CS(=O)(=O)O.CS(=O)(=O)O.CS(=O)(=O)O.CS(=O)(=O)O (stereo not shown) [(HO)2DEHSPM Mesylate Salt]
PUT concentration [11]: 7 ± 12 nmol/g wet weight of tissue | SPD concentration [11]: 404 ± 24 nmol/g wet weight of tissue | SPM concentration [11]: 680 nmol/g wet weight of tissue and 680 ± 15 nmol/g wet weight of tissue | PUT concentration [12]: 0 ± 0 nmol/g wet weight of tissue | SPD concentration [12]: 265 ± 5 nmol/g wet weight of tissue | SPM concentration [12]: 655 nmol/g wet weight of tissue and 655 ± 41 nmol/g wet weight of tissue | PUT concentration [13]: 26 ± 5 nmol/g wet weight of tissue | SPD concentration [13]: 239 ± 9 nmol/g wet weight of tissue | SPM concentration [13]: 601 nmol/g wet weight of tissue and 601 ± 29 nmol/g wet weight of tissue | PUT concentration [14]: 0 ± 0 nmol/g wet weight of tissue | SPD concentration [14]: 1044 ± 177 nmol/g wet weight of tissue | SPM concentration [14]: 908 nmol/g wet weight of tissue and 908 ± 55 nmol/g wet weight of tissue | PUT concentration [15]: 0 ± 0 nmol/g wet weight of tissue | SPD concentration [15]: 1108 ± 146 nmol/g wet weight of tissue | SPM concentration [15]: 987 nmol/g wet weight of tissue and 987 ± 49 nmol/g wet weight of tissue | PUT concentration [16]: 0 ± 0 nmol/g wet weight of tissue | SPD concentration [16]: 910 ±10 nmol/g wet weight of tissue | SPM concentration [16]: 807 nmol/g wet weight of tissue and 807 ± 138 nmol/g wet weight of tissue | PUT concentration [17]: 36 ± 10 nmol/g wet weight of tissue | SPD concentration [17]: 5717 ± 426 nmol/g wet weight of tissue | SPM concentration [17]: 1108 nmol/g wet weight of tissue and 1108 ± 15 nmol/g wet weight of tissue | PUT concentration [18]: 57 ± 15 nmol/g wet weight of tissue | SPD concentration [18]: 6460 ± 280 nmol/g wet weight of tissue | SPM concentration [18]: 1333 nmol/g wet weight of tissue and 1333 ± 103 nmol/g wet weight of tissue | PUT concentration [19]: 31 ± 3 nmol/g wet weight of tissue | SPD concentration [19]: 6147 ± 223 nmol/g wet weight of tissue | SPM concentration [19]: 1273 ± 210 nmol/g wet weight of tissue
